Source: article PMC5863483, “Low HLA binding of diabetes-associated CD8+ T-cell epitopes is increased by post translational modifications” (BMC Immunology, 2018)
Where two headings read alike, the source gives them in different places. Where a SMILES comes first, the peptide text is derived from it. [ ]: non-standard residue; d: D form. Cit = NC(=O)NCCC[C@H](N)C(=O)O

Target: HLA-A*02:01 (Homo sapiens, UniProt P04439, D140Y/D185E/D98H/E176V/E277Q/G131W/G231S/I119V/I121R/I166T/I218V/L300P/L318F/N151K/N90K/P208A/P217A/Q86G/Q94H/R138H/R169H/T345S)
Test: HLA-peptide competition binding assay, A*02:01
[1] = post-translationally modified insulin peptide, competition binding assay, a dash indicates IC50 >40,000 nM, read-out: A*02:01 binding (IC50 nM) Modified
[2] = read-out: A*02:01 binding (IC50 nM) Modified
[3] = post-translationally modified insulin-derived peptide, radiolabeled ligand competition, purified MHC, two-day incubation, three or more independent experiments, read-out: A*02:01 binding, Modified

SMILES | IC50 [1] [nM] | further results
CC(C)C[C@H](NC(=O)[C@H](CC(=O)O)NC(=O)[C@H](CCC(=O)O)NC(=O)[C@H](C)NC(=O)[C@H](CCC(=O)O)NC(=O)[C@H](CCCNC(N)=O)NC(=O)[C@H](CCCNC(N)=O)NC(=O)[C@@H](NC(=O)[C@@H](N)CCCCN)[C@@H](C)O)C(=O)O (H-KT[Cit][Cit]EAEDL-OH; N-terminus and C-terminus assumed) | > 40000 | –
CC(C)C[C@H](NC(=O)[C@H](CC(=O)O)NC(=O)[C@H](CCC(=O)O)NC(=O)[C@H](C)NC(=O)[C@H](CCC(=O)O)NC(=O)[C@H](CCCNC(N)=O)NC(=O)[C@H](CCCNC(N)=O)NC(=O)[C@@H](NC(=O)[C@@H](N)CCCCN)[C@@H](C)O)C(=O)N[C@@H](CCC(N)=O)C(=O)O (H-KT[Cit][Cit]EAEDLQ-OH) | – | IC50 [2]: 22300 nM
CC(C)C[C@H](NC(=O)[C@H](C)NC(=O)[C@@H](N)CC(C)C)C(=O)N[C@@H](CCC(=O)O)C(=O)NCC(=O)N[C@@H](CO)C(=O)N[C@@H](CC(C)C)C(=O)N[C@@H](CCC(N)=O)C(=O)N[C@@H](CCCCN)C(=O)N[C@@H](CCCNC(N)=O)C(=O)O (H-LALEGSLQK[Cit]-OH) | – | IC50 [3]: 16400 nM
CC(C)C[C@H](NC(=O)[C@H](CO)NC(=O)CNC(=O)[C@H](CCC(=O)O)NC(=O)[C@@H](N)CC(C)C)C(=O)N[C@@H](CCC(N)=O)C(=O)N[C@@H](CCCCN)C(=O)N[C@@H](CCCNC(N)=O)C(=O)NCC(=O)O (H-LEGSLQK[Cit]G-OH; N-terminus and C-terminus assumed) | > 40000 | –
CC[C@H](C)[C@H](NC(=O)CNC(=O)[C@H](CCCNC(N)=O)NC(=O)[C@H](CCCCN)NC(=O)[C@H](CCC(N)=O)NC(=O)[C@H](CC(C)C)NC(=O)[C@H](CO)NC(=O)CNC(=O)[C@H](CCC(=O)O)NC(=O)[C@@H](N)CC(C)C)C(=O)O (H-LEGSLQK[Cit]GI-OH; N-terminus and C-terminus assumed) | > 40000 | –
CC[C@H](C)[C@H](NC(=O)CNC(=O)[C@H](CCCNC(N)=O)NC(=O)[C@H](CCCCN)NC(=O)[C@H](CCC(N)=O)NC(=O)[C@@H](N)CC(C)C)C(=O)N[C@H](C(=O)N[C@@H](CCC(=O)O)C(=O)N[C@@H](CCC(N)=O)C(=O)O)C(C)C (H-LQK[Cit]GIVEQ-OH; N-terminus and C-terminus assumed) | > 40000 | –
CC[C@H](C)[C@H](NC(=O)CNC(=O)[C@H](CCCNC(N)=O)NC(=O)[C@H](CCCCN)NC(=O)[C@H](CCC(N)=O)NC(=O)[C@@H](N)CC(C)C)C(=O)N[C@H](C(=O)N[C@@H](CCC(=O)O)C(=O)N[C@@H](CCC(N)=O)C(=O)N[C@@H](CS)C(=O)O)C(C)C (H-LQK[Cit]GIVEQC-OH; N-terminus and C-terminus assumed) | > 40000 | –
CC(C)C[C@H](N)C(=O)N[C@H](C(=O)N[C@@H](CS)C(=O)NCC(=O)N[C@@H](CCC(=O)O)C(=O)N[C@@H](CCCNC(N)=O)C(=O)NCC(=O)N[C@@H](Cc1ccccc1)C(=O)N[C@@H](Cc1ccccc1)C(=O)O)C(C)C (H-LVCGE[Cit]GFF-OH; N-terminus and C-terminus assumed) | > 40000 | –
CC(C)C[C@H](N)C(=O)N[C@H](C(=O)N[C@@H](CS)C(=O)NCC(=O)N[C@@H](CCC(=O)O)C(=O)N[C@@H](CCCNC(N)=O)C(=O)NCC(=O)N[C@@H](Cc1ccccc1)C(=O)N[C@@H](Cc1ccccc1)C(=O)N[C@@H](Cc1ccc(O)cc1)C(=O)O)C(C)C (H-LVCGE[Cit]GFFY-OH; N-terminus and C-terminus assumed) | > 40000 | –
CSCC[C@H](NC(=O)[C@H](Cc1c[nH]c2ccccc12)NC(=O)[C@@H](N)CC(C)C)C(=O)N[C@@H](CCCNC(N)=O)C(=O)N[C@@H](CC(C)C)C(=O)N[C@@H](CC(C)C)C(=O)N1CCC[C@H]1C(=O)N[C@@H](CC(C)C)C(=O)N[C@@H](CC(C)C)C(=O)O (H-LWM[Cit]LLPLL-OH) | – | IC50 [2]: 148 nM
CSCC[C@H](NC(=O)[C@H](Cc1c[nH]c2ccccc12)NC(=O)[C@@H](N)CC(C)C)C(=O)N[C@@H](CCCNC(N)=O)C(=O)N[C@@H](CC(C)C)C(=O)N[C@@H](CC(C)C)C(=O)N1CCC[C@H]1C(=O)N[C@@H](CC(C)C)C(=O)N[C@@H](CC(C)C)C(=O)N[C@@H](C)C(=O)O (H-LWM[Cit]LLPLLA-OH) | – | IC50 [3]: 61 nM
CSCC[C@H](NC(=O)[C@H](Cc1c[nH]c2ccccc12)NC(=O)[C@H](CC(C)C)NC(=O)[C@H](C)NC(=O)[C@@H](N)CCSC)C(=O)N[C@@H](CCCNC(N)=O)C(=O)N[C@@H](CC(C)C)C(=O)N[C@@H](CC(C)C)C(=O)N1CCC[C@H]1C(=O)O (H-MALWM[Cit]LLP-OH) | – | IC50 [3]: 2120 nM
CSCC[C@H](NC(=O)[C@H](Cc1c[nH]c2ccccc12)NC(=O)[C@H](CC(C)C)NC(=O)[C@H](C)NC(=O)[C@@H](N)CCSC)C(=O)N[C@@H](CCCNC(N)=O)C(=O)N[C@@H](CC(C)C)C(=O)N[C@@H](CC(C)C)C(=O)N1CCC[C@H]1C(=O)N[C@@H](CC(C)C)C(=O)O (H-MALWM[Cit]LLPL-OH) | – | IC50: 262 nM
CSCC[C@H](N)C(=O)N[C@@H](CCCNC(N)=O)C(=O)N[C@@H](CC(C)C)C(=O)N[C@@H](CC(C)C)C(=O)N1CCC[C@H]1C(=O)N[C@@H](CC(C)C)C(=O)N[C@@H](CC(C)C)C(=O)N[C@@H](C)C(=O)N[C@@H](CC(C)C)C(=O)N[C@@H](CC(C)C)C(=O)O (H-M[Cit]LLPLLALL-OH) | – | IC50 [2]: 98 nM
CC(C)C[C@H](NC(=O)[C@H](CC(=O)O)NC(=O)[C@H](CCC(=O)O)NC(=O)[C@H](C)NC(=O)[C@H](CCC(=O)O)NC(=O)[C@H](CCCNC(N)=O)NC(=O)[C@H](CCCNC(N)=O)NC(=O)[C@@H](NC(=O)[C@H](CCCCN)NC(=O)[C@@H]1CCCN1)[C@@H](C)O)C(=O)O (H-PKT[Cit][Cit]EAEDL-OH; N-terminus and C-terminus assumed) | > 40000 | –
CC[C@H](C)[C@H](NC(=O)CNC(=O)[C@H](CCCNC(N)=O)NC(=O)[C@H](CCCCN)NC(=O)[C@@H](N)CCC(N)=O)C(=O)N[C@H](C(=O)N[C@@H](CCC(=O)O)C(=O)N[C@@H](CCC(N)=O)C(=O)N[C@@H](CS)C(=O)O)C(C)C (H-QK[Cit]GIVEQC-OH; N-terminus and C-terminus assumed) | > 40000 | –
CC[C@H](C)[C@H](NC(=O)CNC(=O)[C@H](CCCNC(N)=O)NC(=O)[C@H](CCCCN)NC(=O)[C@H](CCC(N)=O)NC(=O)[C@H](CC(C)C)NC(=O)[C@@H](N)CO)C(=O)N[C@H](C(=O)N[C@@H](CCC(=O)O)C(=O)N[C@@H](CCC(N)=O)C(=O)O)C(C)C (H-SLQK[Cit]GIVEQ-OH; N-terminus and C-terminus assumed) | > 40000 | –
C[C@H](NC(=O)[C@H](CCC(=O)O)NC(=O)[C@H](CCCNC(N)=O)NC(=O)[C@H](CCCNC(N)=O)NC(=O)[C@@H](NC(=O)[C@H](CCCCN)NC(=O)[C@@H]1CCCN1C(=O)[C@@H](N)[C@@H](C)O)[C@@H](C)O)C(=O)N[C@@H](CCC(=O)O)C(=O)O (H-TPKT[Cit][Cit]EAE-OH; N-terminus and C-terminus assumed) | > 40000 | –
CC(C)C[C@H](NC(=O)[C@H](CC(=O)O)NC(=O)[C@H](CCC(=O)O)NC(=O)[C@H](C)NC(=O)[C@H](CCC(=O)O)NC(=O)[C@H](CCCNC(N)=O)NC(=O)[C@H](CCCNC(N)=O)NC(=O)[C@@H](N)[C@@H](C)O)C(=O)N[C@@H](CCC(N)=O)C(=O)O (H-T[Cit][Cit]EAEDLQ-OH; N-terminus and C-terminus assumed) | > 40000 | –
CC(C)C[C@H](NC(=O)[C@H](CC(=O)O)NC(=O)[C@H](CCC(=O)O)NC(=O)[C@H](C)NC(=O)[C@H](CCC(=O)O)NC(=O)[C@H](CCCNC(N)=O)NC(=O)[C@H](CCCNC(N)=O)NC(=O)[C@@H](N)[C@@H](C)O)C(=O)N[C@@H](CCC(N)=O)C(=O)N[C@H](C(=O)O)C(C)C (H-T[Cit][Cit]EAEDLQV-OH) | – | IC50 [2]: 30200 nM
